In ChEMBL document CHEMBL1201862, “PubChem BioAssay data set” (2004):
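Method: 48-hour compound exposure of cells in 96-well plates, five concentrations, linear interpolation of endpoints. At the GI50, growth is halved.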 Activity calls are given as the source filed them. No stated cut-off is given here; in the data, active = GI50 up to about 1.1 µM and inactive = higher.

What was measured:
Experiment in all cases: growth of human tumour cells (NCI), 48 h
Malme-3M = test system: Malme-3M
OVCAR-8 = test system: OVCAR-8
CCRF-CEM = test system: CCRF-CEM
UACC-62 = test system: UACC-62
OVCAR-3 = test system: OVCAR-3
SW-620 = test system: SW-620
SK-OV-3 = test system: SK-OV-3
HCT-116 = test system: HCT-116
NCI-H460 = test system: NCI-H460
OVCAR-4 = test system: OVCAR-4
SF-295 = test system: SF-295
A498 = test system: A498
HL-60 = test system: HL-60
IGROV-1 = test system: IGROV-1
MDA-MB-231 = test system: MDA-MB-231
HOP-62 = test system: HOP-62
KM12 = test system: KM12
SR = test system: SR
K562 = test system: K562
DU-145 = test system: DU-145

Row | Structure (SMILES) | GI50 (Malme-3M) | GI50 (OVCAR-8) | GI50 (CCRF-CEM) | GI50 (UACC-62) | GI50 (OVCAR-3) | GI50 (SW-620) | GI50 (SK-OV-3) | GI50 (HCT-116) | GI50 (NCI-H460) | GI50 (OVCAR-4) | GI50 (SF-295) | GI50 (A498) | GI50 (HL-60) | GI50 (IGROV-1) | GI50 (MDA-MB-231) | GI50 (HOP-62) | GI50 (KM12) | GI50 (SR) | GI50 (K562) | GI50 (DU-145)
1 | CCOc1ccc(NC(=O)C(=O)C2C(=O)Nc3ccccc3[S+]2[O-])cc1 (centres undefined) | > 100 µM (inactive) | > 100 µM (inactive) | > 100 µM (inactive) | > 100 µM (inactive) | > 100 µM (inactive) | > 100 µM (inactive) | > 100 µM (inactive) | > 100 µM (inactive) | > 100 µM (inactive) | 89.7 µM (inactive) | > 100 µM (inactive) | > 100 µM (inactive) | > 100 µM (inactive) | 55.6 µM (inactive) | > 100 µM (inactive) | > 100 µM (inactive) | > 100 µM (inactive) | – | – | –
2 | CC(=O)N1C/C(=C\c2ccccc2)C(=O)/C(=C/c2ccccc2)C1 | 18.3 µM (inactive) | 7.8 µM (inactive) | 2.82 µM (inactive) | 14.4 µM (inactive) | 6.43 µM (inactive) | 2.67 µM (inactive) | 22.5 µM (inactive) | 2.51 µM (inactive) | 17.4 µM (inactive) | 17.6 µM (inactive) | 13.4 µM (inactive) | 16.8 µM (inactive) | 1.68 µM (inactive) | 17.6 µM (inactive) | – | 11.4 µM (inactive) | 3.65 µM (inactive) | 2.99 µM (inactive) | 2.89 µM (inactive) | –
3 | C#CCN(Cc1ccc2nc(-c3ccccc3)c(Cl)nc2c1)c1ccc(Cl)c(Cl)c1 | > 100 µM (inactive) | > 100 µM (inactive) | > 100 µM (inactive) | > 100 µM (inactive) | 60 µM (inactive) | > 100 µM (inactive) | > 100 µM (inactive) | > 100 µM (inactive) | > 100 µM (inactive) | > 100 µM (inactive) | > 100 µM (inactive) | > 100 µM (inactive) | > 100 µM (inactive) | > 100 µM (inactive) | – | > 100 µM (inactive) | > 100 µM (inactive) | > 100 µM (inactive) | > 100 µM (inactive) | –
4 | CC(=O)[O-].[Zn+].c1ccc(/C(=N\Nc2ccccn2)c2ccccn2)cc1 | 0.124 µM (active) | 0.0519 µM (active) | 0.00277 µM (active) | 0.182 µM (active) | 0.0015 µM (active) | 0.0676 µM (active) | 0.0615 µM (active) | 0.005 µM (active) | 0.31 µM (active) | 0.603 µM (active) | 0.348 µM (active) | 1.74 µM (inactive) | 0.00121 µM (active) | 0.0374 µM (active) | – | 0.269 µM (active) | 0.356 µM (active) | – | 0.00535 µM (active) | 0.458 µM (active)
5 | COc1c(-c2nc3ccc(N4CCN(C)CC4)nc3[nH]2)cc(OC)c2c1nc(CCl)n2C | 17.5 µM (inactive) | 20.1 µM (inactive) | 25.2 µM (inactive) | 10.4 µM (inactive) | 28.1 µM (inactive) | 20.9 µM (inactive) | 28.8 µM (inactive) | 32.2 µM (inactive) | 20.6 µM (inactive) | 18.3 µM (inactive) | 31.8 µM (inactive) | – | 26.5 µM (inactive) | 18.4 µM (inactive) | 19.2 µM (inactive) | 21.4 µM (inactive) | 14.8 µM (inactive) | – | 29 µM (inactive) | 25.4 µM (inactive)
6 | O=C(CSCC(=O)N/N=C/c1ccccc1)N/N=C\c1ccccc1 | > 100 µM (inactive) | > 100 µM (inactive) | > 100 µM (inactive) | > 100 µM (inactive) | > 100 µM (inactive) | > 100 µM (inactive) | > 100 µM (inactive) | > 100 µM (inactive) | > 100 µM (inactive) | > 100 µM (inactive) | > 100 µM (inactive) | – | – | > 100 µM (inactive) | > 100 µM (inactive) | > 100 µM (inactive) | 16.7 µM (inactive) | – | > 100 µM (inactive) | > 100 µM (inactive)
7 | NC(=S)N/N=C/C(O[C@@H](/C=N/NC(N)=S)CO)n1cnc2c(N)ncnc21 (some centres undefined) | > 100 µM (inactive) | > 91.2 µM (inactive) | 37.2 µM (inactive) | > 81.7 µM (inactive) | > 55.3 µM (inactive) | > 38 µM (inactive) | > 100 µM (inactive) | 24.4 µM (inactive) | > 80.5 µM (inactive) | > 100 µM (inactive) | > 100 µM (inactive) | > 100 µM (inactive) | 67 µM (inactive) | > 56.2 µM (inactive) | – | > 100 µM (inactive) | > 100 µM (inactive) | > 100 µM (inactive) | > 54.7 µM (inactive) | –
